Assay results published in ChEMBL document CHEMBL6109135, “Development of Diphenyl-1,2,4-Oxadiazole Analogues as Allosteric Modulators of the RXFP3 Receptor: Evaluation of Importance of the N-Substituted-2-Pyrrolidone Moiety in RLX-33” (J Med Chem, 2025).
Blank lines part the entries; values can stand above or below the compound they belong to.

How the values were obtained:
Relaxin receptor 1 = target: T1, Relaxin receptor 1 (Homo sapiens, UniProt Q9HBX9); assay: Negative allosteric modulation of human RXFP1 receptor expressed in CHO-K1 cells assessed as cAMP accumulation incubated for 30 mins by TR-FRET assay; type: functional, cell-based
T1 sequence (Q9HBX9 whole entry): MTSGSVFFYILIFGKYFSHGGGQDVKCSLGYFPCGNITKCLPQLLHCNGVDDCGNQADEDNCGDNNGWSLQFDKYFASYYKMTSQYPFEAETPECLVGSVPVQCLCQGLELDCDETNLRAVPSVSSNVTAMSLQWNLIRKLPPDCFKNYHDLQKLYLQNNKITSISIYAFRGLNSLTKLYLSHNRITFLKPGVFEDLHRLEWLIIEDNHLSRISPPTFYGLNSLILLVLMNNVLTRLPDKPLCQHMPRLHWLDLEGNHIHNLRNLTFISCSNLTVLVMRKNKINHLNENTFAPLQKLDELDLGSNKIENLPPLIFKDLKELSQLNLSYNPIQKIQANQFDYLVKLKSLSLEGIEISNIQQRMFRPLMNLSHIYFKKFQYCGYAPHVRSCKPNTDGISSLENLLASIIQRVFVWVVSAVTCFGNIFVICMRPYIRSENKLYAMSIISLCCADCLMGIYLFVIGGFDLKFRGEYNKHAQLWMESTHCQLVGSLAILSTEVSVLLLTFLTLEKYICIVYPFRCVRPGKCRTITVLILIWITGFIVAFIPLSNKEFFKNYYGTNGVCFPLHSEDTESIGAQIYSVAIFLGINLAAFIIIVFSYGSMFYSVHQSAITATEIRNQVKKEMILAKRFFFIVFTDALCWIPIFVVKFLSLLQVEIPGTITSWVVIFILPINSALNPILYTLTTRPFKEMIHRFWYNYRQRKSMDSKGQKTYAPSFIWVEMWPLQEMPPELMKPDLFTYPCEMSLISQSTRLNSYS

[1] = Kinetic solubility of compound in PBS at pH 7.4 incubated under agitation for 2 hrs by LC-MS/MS analysis; type: physicochemical
[2] = AUClast in male Wistar rat brain at 10 mg/kg, ip measured 24 hrs post dose by LC-MS/MS analysis; type: ADME, organism-based
[3] = Clearance in male Wistar rat plasma at 10 mg/kg, ip administrated as single dose and measured 24 hrs post dose by LC-MS/MS analysis; type: ADME, organism-based
[4] = Tmax in male Wistar rat plasma at 10 mg/kg, ip administrated as single dose and measured 24 hrs post dose by LC-MS/MS analysis; type: ADME, organism-based; conditions: in vivo
[5] = AUClast in female Wistar rat brain at 10 mg/kg, ip measured 24 hrs post dose by LC-MS/MS analysis; type: ADME, organism-based
[6] = Clearance in female Wistar rat plasma at 10 mg/kg, ip administrated as single dose and measured 24 hrs post dose by LC-MS/MS analysis; type: ADME, organism-based
[7] = Metabolic stability in rat liver microsomes assessed as clearance measured up to 45 mins by LC-MS/MS analysis; type: ADME, Microsome; conditions: 0.75 h
[8] = Metabolic stability in rat liver microsomes assessed as half life measured up to 45 mins by LC-MS/MS analysis; type: ADME, Microsome
[9] = Half life in female Wistar rat plasma at 10 mg/kg, ip administrated as single dose and measured 24 hrs post dose by LC-MS/MS analysis; type: ADME, organism-based; conditions: in vivo
[10] = Cmax in female Wistar rat plasma at 10 mg/kg, ip administrated as single dose and measured 24 hrs post dose by LC-MS/MS analysis; type: ADME, organism-based; conditions: in vivo
[11] = Apparent permeability compound across apical to basolateral side in MDCK-MDR1 cells at 10 uM incubated for 30 to 90 mins; type: ADME, cell-based, Canis lupus familiaris; conditions: dog
[12] = Brain concentration in female Wistar rat at 10 mg/kg, ip measured after 24 hrs; type: ADME, organism-based; conditions: in vivo
[13] = AUClast in female Wistar rat plasma at 10 mg/kg, ip administrated as single dose and measured 24 hrs post dose by LC-MS/MS analysis; type: ADME, organism-based
[14] = Apparent permeability of compound across basolateral to apical side in MDCK-MDR1 cells at 10 uM incubated for 30 to 90 mins; type: ADME, cell-based, Canis lupus familiaris; conditions: dog
[15] = Cmax in male Wistar rat plasma at 10 mg/kg, ip administrated as single dose and measured 24 hrs post dose by LC-MS/MS analysis; type: ADME, organism-based; conditions: in vivo
[16] = Cmax in male Wistar rat brain at 10 mg/kg, ip measured 24 hrs post dose by LC-MS/MS analysis; type: ADME, organism-based
Relaxin-3 receptor 2 = Relaxin-3 receptor 2 (Homo sapiens, UniProt Q8TDU9); assay: Negative allosteric modulation of human RXFP4 receptor expressed in CHO-K1 cells assessed as cAMP accumulation incubated for 30 mins by TR-FRET assay; type: functional, cell-based
Chain of Relaxin-3 receptor 2 (Q8TDU9 whole entry): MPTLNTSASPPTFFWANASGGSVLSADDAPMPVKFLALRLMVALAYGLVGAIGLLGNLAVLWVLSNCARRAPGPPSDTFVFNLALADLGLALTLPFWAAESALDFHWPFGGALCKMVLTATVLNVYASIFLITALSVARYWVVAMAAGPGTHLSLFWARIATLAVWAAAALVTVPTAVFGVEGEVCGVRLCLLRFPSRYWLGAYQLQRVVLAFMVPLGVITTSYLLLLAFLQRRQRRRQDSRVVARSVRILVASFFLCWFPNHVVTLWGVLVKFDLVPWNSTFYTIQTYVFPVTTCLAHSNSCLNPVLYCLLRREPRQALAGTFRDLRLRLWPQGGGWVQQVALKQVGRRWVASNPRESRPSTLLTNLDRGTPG

[17] = Plasma protein binding in Wistar rat at 1 uM incubated for 6 hrs by LC-MS/MS analysis; type: ADME, cell-free
[18] = Tmax in female Wistar rat brain at 10 mg/kg, ip measured 24 hrs post dose by LC-MS/MS analysis; type: ADME, organism-based; conditions: in vivo
[19] = Tmax in female Wistar rat plasma at 10 mg/kg, ip administrated as single dose and measured 24 hrs post dose by LC-MS/MS analysis; type: ADME, organism-based; conditions: in vivo
[20] = AUClast in male Wistar rat plasma at 10 mg/kg, ip administrated as single dose and measured 24 hrs post dose by LC-MS/MS analysis; type: ADME, organism-based
[21] = Brain concentration in male Wistar rat at 10 mg/kg, ip measured after 24 hrs; type: ADME, organism-based; conditions: in vivo
[22] = Half life in male Wistar rat plasma at 10 mg/kg, ip administrated as single dose and measured 24 hrs post dose by LC-MS/MS analysis; type: ADME, organism-based; conditions: in vivo
[23] = Tmax in male Wistar rat brain at 10 mg/kg, ip measured 24 hrs post dose by LC-MS/MS analysis; type: ADME, organism-based; conditions: in vivo
[24] = Cmax in female Wistar rat brain at 10 mg/kg, ip measured 24 hrs post dose by LC-MS/MS analysis; type: ADME, organism-based
Relaxin-3 receptor 1 [25] = target: T2, Relaxin-3 receptor 1 (Homo sapiens, UniProt Q9NSD7); assay: Negative allosteric modulation of human RXFP3 receptor expressed in CHO-K1 cell membrane assessed as inhibition of relaxin-3-induced stimulation of [35S]GTPgammaS binding followed by relaxin-3 addition and measured after 1 hr; type: functional, cell membranes
T2 sequence (Q9NSD7 whole entry): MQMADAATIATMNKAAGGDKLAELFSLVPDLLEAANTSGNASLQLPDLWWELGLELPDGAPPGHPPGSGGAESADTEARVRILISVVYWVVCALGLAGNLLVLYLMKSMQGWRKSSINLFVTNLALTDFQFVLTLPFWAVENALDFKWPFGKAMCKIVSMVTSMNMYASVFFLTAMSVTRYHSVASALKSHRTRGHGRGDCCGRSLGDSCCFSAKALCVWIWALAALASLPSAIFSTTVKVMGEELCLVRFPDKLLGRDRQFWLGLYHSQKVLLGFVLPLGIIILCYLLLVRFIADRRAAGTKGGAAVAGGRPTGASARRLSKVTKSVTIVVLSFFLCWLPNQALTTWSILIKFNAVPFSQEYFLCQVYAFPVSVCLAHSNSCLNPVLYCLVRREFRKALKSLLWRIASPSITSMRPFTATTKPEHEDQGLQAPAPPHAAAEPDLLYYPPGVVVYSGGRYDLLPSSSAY

Relaxin-3 receptor 1 [26] = target: T2, Relaxin-3 receptor 1; assay: Negative allosteric modulation of human RXFP3 receptor expressed in CHO-K1 cells assessed as cAMP accumulation incubated for 30 mins in presence of forskolin by TR-FRET assay; type: functional, cell-based
[27] = Efflux ratio of apparent permeability across basolateral to apical over apical to basolateral side in MDCK-MDR1 cells at 10 uM incubated for 30 to 90 mins; type: ADME, cell-based, Canis lupus familiaris; conditions: dog, time 30-90 min
[28] = mdck-mdr1, 10 µM, time 30-90 min

Structure (SMILES): O=C(Nc1ccc(-c2nc(-c3ccc(Cl)cc3)no2)cc1)[C@@H]1CC(=O)N(C[C@@H]2CCCNC2)C1
IC50 (Relaxin receptor 1): > 100 µM
Kinetic_solubility ([1]; buffer, pH 7.4, 2 h): 10.1 µM
AUC(0-t) at 24 h [2]: 3270 ng·h/mL
CL/F [3]: 18 mL/min/kg
Tmax [4]: 30 min
AUC(0-t) at 24 h [5]: 1930 ng·h/mL
CL/F [6]: 18 mL/min/kg
CLH [7]: 6.8 µL/min/mg
t1/2 ([8]; microsomes, 0.75 h): 205 min
t1/2 [9]: 10 h
Cmax [10]: 2117 ng/mL
Papp [11, 28]: 1.1 10^-6 cm/s
Drug uptake [12]: Active
AUC(0-t) at 24 h [13]: 8130 ng·h/mL
Papp [14, 28]: 3.1 10^-6 cm/s
Cmax [15]: 2121 ng/mL
Cmax [16]: 185 ng/mL
IC50 (Relaxin-3 receptor 2): > 100 µM
PPB [17]: 98%
Tmax [18]: 2 h
Tmax [19]: 30 min
AUC(0-t) at 24 h [20]: 7370 ng·h/mL
Drug uptake [21]: Active
t1/2 [22]: 12 h
Tmax [23]: 1 h
Cmax [24]: 157 ng/mL

Structure (SMILES): O=C(Nc1ccc(-c2nc(-c3ccc(Cl)cc3)no2)cc1)C1CC(=O)N(Cc2ccco2)C1 (stereo not given)
solubility kinetic at 2 h ([1]; PBS, pH 7.4, read-out: Kinetic_solubility): < 1 µM
CLH [7]: 132 µL/min/mg
half-life ([8]; liver microsomes): 10.6 min
Papp A→B at 10 µM ([11]; MDCK-MDR1, time 30-90 min): 1.3 ×10⁻⁶ cm/s
IC50 (Relaxin-3 receptor 1 [25]): 3020 nM
Papp B→A at 10 µM ([14]; MDCK-MDR1, time 30-90 min): 1.3 ×10⁻⁶ cm/s
IC50 (Relaxin-3 receptor 1 [26]; cho-k1): 2360 nM
efflux ratio at 10 µM [27]: 1

Structure (SMILES): O=C(Nc1ccc(-c2nc(-c3ccc(Cl)cc3)no2)cc1)C1CC(=O)N(CC2CCNCC2)C1 (stereo not given)
IC50 (Relaxin-3 receptor 1 [25]): 710 nM

Structure (SMILES): O=C(Nc1ccc(-c2nc(-c3ccc(Cl)cc3)no2)cc1)C1CC(=O)N(Cc2cccnc2)C1 (stereo not given)
IC50 (Relaxin-3 receptor 1 [25]): 2630 nM

Structure (SMILES): O=C(Nc1ccc(-c2nc(-c3ccc(Cl)cc3)no2)cc1)C1CC(=O)N(CC2CCCCN2)C1 (racemic)
IC50 (Relaxin-3 receptor 1 [25]): 960 nM

The next lines start with the values.

IC50 (Relaxin-3 receptor 1 [25]): 1450 nM
Structure (SMILES): NCCN1CC(C(=O)Nc2ccc(-c3nc(-c4ccc(Cl)cc4)no3)cc2)CC1=O (stereo not given)

IC50 (Relaxin-3 receptor 1 [25]): 2630 nM
Structure (SMILES): CNCC(=O)Nc1ccc(-c2nc(-c3ccc(Cl)cc3)no2)cc1

IC50 (Relaxin-3 receptor 1 [25]): 1700 nM
Structure (SMILES): O=C(Nc1ccc(-c2nc(-c3ccc(Cl)cc3)no2)cc1)C1CC(=O)N(CC2CCNC2)C1 (racemic)

IC50 (Relaxin receptor 1): > 100 µM
IC50 (Relaxin-3 receptor 2): 34.3 µM
Structure (SMILES): CNCCN1CC(C(=O)Nc2ccc(-c3nc(-c4ccc(Cl)cc4)no3)cc2)CC1=O (stereo not given)

IC50 (Relaxin-3 receptor 1 [25]): 1180 nM
Structure (SMILES): CNCCCN1CC(C(=O)Nc2ccc(-c3nc(-c4ccc(Cl)cc4)no3)cc2)CC1=O (stereo not given)

IC50 (Relaxin-3 receptor 1 [25]): 2090 nM
Structure (SMILES): CNCCCC(=O)Nc1ccc(-c2nc(-c3ccc(Cl)cc3)no2)cc1

IC50 (Relaxin receptor 1): 19.6 µM
IC50 (Relaxin-3 receptor 1 [25]): 1050 nM
IC50 (Relaxin-3 receptor 2): 4.87 µM
IC50 (Relaxin-3 receptor 1 [26]): 590 nM
Structure (SMILES): CNCCC(=O)Nc1ccc(-c2nc(-c3ccc(Cl)cc3)no2)cc1

IC50 (Relaxin receptor 1): > 100 µM
IC50 (Relaxin-3 receptor 2): 14.3 µM
Structure (SMILES): CNCCN1CCC(C(=O)Nc2ccc(-c3nc(-c4ccc(Cl)cc4)no3)cc2)CC1
